These results are taken from the METLIN SMRT retention time set (Domingo-Almenara et al. 2019).

This data set in a line: gradient 5% acetonitrile 3 min, to 50% in 2 min, to 85% in 15 min, held 3 min, 100 µL/min. Particulars: column: Zorbax Extend-C18 2.1 x 50 mm; eluents: water / acetonitrile, 0.1% formic acid. The method in brief:
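Values are retention times taken from adduct peaks that software picked and an analyst inspected. The pure standards were run as mixtures of ~100 molecules on HPLC linked to a quadrupole time-of-flight mass spectrometer, in positive and negative ionization mode. A Zorbax Extend-C18 column (2.1 × 50 mm, 1.8 μm) was used at 100 μL/min with water and acetonitrile, each including 0.1% formic acid.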
`Cc1cccc(-c2noc(CCn3nc(-c4ccc5c(c4)OCO5)ccc3=O)n2)c1` came in with an RP-LC retention time of 976 s.

`Cc1cc(-c2nnc(-c3ccc(F)cc3)o2)c(C)n1CC(=O)NCC1CCCO1` (centres undefined) had an RP-LC retention time of 771 s.

`CCc1nnc(-c2ccc3ccn(CC(=O)Nc4ccccc4C)c3c2)o1` displayed an RP-LC retention time of 826 s.

Molecule `Cc1ccn2c(Nc3ccc4c(c3)OCCO4)c(-c3ccc(N4CCOCC4)cc3)nc2c1` had an RP-LC retention time of 680 s.

As to `CCc1nnc(-c2ccc3ccn(CC(=O)Nc4cccc(C(C)=O)c4)c3c2)o1`, the RP-LC retention time is 788 s.

Regarding `CN1[C@@H]2CC[C@H]1CC(OC(=O)C1C=Nc3ccccc31)C2` (some centres undefined), the RP-LC retention time stood at 656 s.

`NC(=O)C1CCN(C(=O)c2ccc(F)cc2)CC1` returned an RP-LC retention time of 589 s.

For the molecule `Clc1ccc(Sc2c(-c3ccccc3)nc3ncccn23)cc1`, the RP-LC retention time came to 1030 s.

In the case of `COc1ccc(-c2nc3cnccn3c2NCCC(=O)N2CCN(C(C)C)CC2)cc1`, the RP-LC retention time amounted to 565 s.

Turning to `O=C(NCC1CCCO1)NC1CC(=O)N(c2ccc(Cl)cc2)C1` (centres undefined), the RP-LC retention time came to 634 s.

Molecule `CCc1cccc(C)c1NC(=O)Cn1c(=O)c(CCC(=O)NC2CCCC2)nc2ccccc21` registered an RP-LC retention time of 844 s.

In turn, `COc1ccccc1Oc1ccc(S(=O)(=O)NCc2ccco2)cc1` came in with an RP-LC retention time of 873 s.

Take `Cc1ccc(=O)n(CCNC(=O)C2CC(=O)N(c3ccc(C)c(C)c3)C2)n1` (centres undefined): the RP-LC retention time is 615 s.

The molecule `CC(C)n1cnc2cc(CNC(=O)C3(c4ccccc4)CC3)ccc21` registered an RP-LC retention time of 648 s.

Take `Cc1ccc(-n2nnc(C(=O)O)c2-c2ccccn2)cc1`: the RP-LC retention time came to 670 s.

As to `O=C(c1ccc2ccnc(N3CCN(c4ccc(F)cc4)CC3)c2c1)N1CCCCCC1`, the RP-LC retention time came out at 816 s.

Take `COc1cccc(CNC(=O)C2CCN(C(=O)c3cc4oc5ccccc5c4n3C)CC2)c1OC`: the RP-LC retention time was 891 s.

Turning to `CCCn1cc(-c2ccncc2)cc1C(=O)NCc1ccccc1C`, the RP-LC retention time was found to be 689 s.

`Cc1ccc(NC(=O)Cn2cnc3c(-c4ccccc4)csc3c2=O)c(Cl)c1` displayed an RP-LC retention time of 965 s.

With `CC1=C(c2ccc(C)cc2)S(=O)(=O)N=C1N1CCCN(C(=O)c2cccc(F)c2)CC1`, the RP-LC retention time came out at 859 s.

With `COc1ccc(OC)c(-c2cc(C(=O)NCc3nc(C)no3)[nH]n2)c1`, the RP-LC retention time is 662 s.

`CCOC(=O)c1c(C)[nH]c(C(=O)N2CCCC(C(=O)NCCCc3ccccc3)C2)c1C` (centres undefined): the RP-LC retention time amounted to 867 s.

`COc1cc(NS(=O)(=O)c2cc3n(c2)CCN(C)C3=O)cc(OC)c1` showed an RP-LC retention time of 671 s.

With `O=C(Nc1cc(-c2ccccn2)no1)C1CC1`, the RP-LC retention time was determined as 668 s.

`OC1(c2ccccn2)CCOC2(CCN(Cc3cccc(F)c3)CC2)C1` (centres undefined) had an RP-LC retention time of 554 s.

`COc1ccc2[nH]cc(CCNC(=O)c3ccccc3F)c2c1` gave an RP-LC retention time of 789 s.

As for `Cc1cccc(NC(=O)Nc2cccc(-c3ccc(N4CCOCC4)nn3)c2)c1`, the RP-LC retention time was determined as 714 s.

`CC(C)(C)c1cc(C(=O)Nc2cc(F)ccc2F)nc2ccnn12` showed an RP-LC retention time of 1450 s.

Molecule `CCc1nc2cc3c(cc2n1CC(=O)NC(C)c1ccc2c(c1)OCCCO2)OCCO3` (centres undefined) showed an RP-LC retention time of 628 s.

`Cc1ccc(C)c(NC(=O)NC2CCN(c3ccccc3)C2=O)c1` (centres undefined) came in with an RP-LC retention time of 823 s.

`Cc1csc(NC(=O)CSc2nnc(NC(=O)c3cc(C)on3)s2)n1` displayed an RP-LC retention time of 692 s.

As for `COc1cc(OC)cc(-c2nc(-c3cn(Cc4ccc(C)cc4)nn3)no2)c1`, the RP-LC retention time was determined as 1090 s.

For the molecule `Cc1ccc2[nH]cc(CCN3CC(C(=O)Nc4cccc(C)c4C)CC3=O)c2c1` (centres undefined), the RP-LC retention time is 820 s.

On to `O=C(NCc1ccccn1)c1cccn1Cc1noc(-c2ccc(Cl)cc2)n1`, for which the RP-LC retention time stood at 743 s.

Turning to `CC(C)S(=O)(=O)c1ccc(CC(=O)N(Cc2cccs2)Cc2cccn2C)cc1`, the RP-LC retention time came to 877 s.

On to `CCc1cc(=O)n(CC(=O)Nc2ccc(C)cc2)c(N2CCOCC2)n1`, for which the RP-LC retention time turned out to be 612 s.

`CC1(C)CC(=O)C2=C(C1)Nc1ccccc1N(CC(=O)N1CCOCC1)C2c1cccs1` (centres undefined) registered an RP-LC retention time of 721 s.

`COC(=O)c1cccc(C(=O)Nc2cccc(C)c2C)n1` had an RP-LC retention time of 899 s.

As to `O=C(NCCc1ccccc1)C1CCCN(C(=O)c2cc(-c3ccccn3)n[nH]2)C1` (centres undefined), the RP-LC retention time was 705 s.

`CN(C)S(=O)(=O)c1ccc(C(=O)Oc2coc(CSc3nccn3C)cc2=O)cc1` yielded an RP-LC retention time of 566 s.

On to `O=c1c2sccc2n(Cc2nc(-c3ccccc3)no2)c(=O)n1-c1cccc(F)c1`, for which the RP-LC retention time came to 959 s.

`COc1cccc(CNC(=O)NCCC2CCN(S(=O)(=O)c3ccc(F)cc3)CC2)c1` had an RP-LC retention time of 842 s.

Molecule `Cc1ccc(OCC(=O)Nc2ccc(-c3nc(-c4cc(C)ccc4C)co3)cc2)cc1` displayed an RP-LC retention time of 888 s.

With `CCc1ccc(CNC(=O)c2cc3n(n2)CC(C)(C(=O)NCCC(C)C)N(C)C3=O)cc1` (centres undefined), the RP-LC retention time is 860 s.

On to `COC(=O)c1c(-c2ccc(Cl)cc2)noc1NCCCN1CCOCC1`, for which the RP-LC retention time came out at 667 s.

With `O=C(c1nnc(-c2ccc(S(=O)(=O)N3CCCC3)cc2)o1)N1CCN(C2CCCCC2)CC1`, the RP-LC retention time was determined as 658 s.

On to `COc1ccc(C)cc1NC(=O)Cc1csc2nc(-c3ccc(C)c(C)c3)cn12`, for which the RP-LC retention time was found to be 930 s.

For the molecule `O=C(CCc1ccccc1)N1CCN(c2cc(-c3cccs3)[nH]n2)CC1`, the RP-LC retention time is 808 s.

Molecule `O=C1[C@H](Cc2ccc(O)cc2)N2C(=O)CCN(C(=O)NCc3ccccc3)[C@H]2CN1Cc1cccc2ccccc12` registered an RP-LC retention time of 847 s.

On to `COc1ccc(-c2ccnc3nc(CCc4ccccc4)nn23)c(F)c1`, for which the RP-LC retention time came out at 963 s.

Consider `O=C(NC(c1ccccc1)c1nnc(N2CCOCC2)o1)c1ccc2c(c1)OCO2` (centres undefined), for which the RP-LC retention time stood at 726 s.

`CCN1C(=O)c2cccnc2Sc2cc(NC(=O)c3cccc(OC)c3)ccc21`: the RP-LC retention time is 826 s.

`CCOC(=O)c1sc(NC(=O)C(CC)Sc2nc(C)cc(C)n2)nc1C` (centres undefined) registered an RP-LC retention time of 1080 s.

Take `CCOc1ccccc1NC(=O)N1CCCC(Cn2cnc3cccnc32)C1` (centres undefined): the RP-LC retention time amounted to 723 s.

In the case of `COc1ccc(S(=O)(=O)N2CCc3nn(CC4CC4)c(=O)n3CC2)cc1Cl`, the RP-LC retention time came out at 786 s.

`CCn1nc(C)c2ccnc(N3CCC(C(=O)N4CCN(c5ccccc5Cl)CC4)CC3)c21` displayed an RP-LC retention time of 812 s.

`COc1c(C(=O)NC2CCCC2)sc2cccc(F)c12`: the RP-LC retention time worked out at 1100 s.

Molecule `COC(=O)c1cc(C)nc2c1c(=O)n(Cc1cc(C)ccc1C)c(=O)n2Cc1ccco1` displayed an RP-LC retention time of 1170 s.

With `O=S(=O)(c1ccc2nc(N3CCN(C4CCCCC4)CC3)cnc2c1)N1CCCCC1`, the RP-LC retention time is 705 s.

In turn, `O=c1ccc(N2CCCN(S(=O)(=O)c3cc(F)ccc3F)CC2)nn1-c1ccccc1` came in with an RP-LC retention time of 853 s.

Molecule `CCOc1ccc2c(n1)CCN(C(=O)NC1CCCCC1)C2` returned an RP-LC retention time of 822 s.

For the molecule `Cc1cc(NC(=O)CN2CCc3[nH]c4c(C)ccc(C)c4c(=O)c3C2)ccc1F`, the RP-LC retention time is 666 s.

Regarding `Cc1nc(Nc2ccc(F)cn2)sc1C(=O)N1CCN(c2ccc(F)cc2)CC1`, the RP-LC retention time was determined as 861 s.

The molecule `CC(=O)Nc1ccc(NC(=O)C2CC(=O)N(c3n[nH]c4cccc(F)c34)C2)cc1` (centres undefined) showed an RP-LC retention time of 634 s.

Take `CCOC(=O)c1c(NCCC(C)C)c2cc(Cl)ccc2[nH]c1=O`: the RP-LC retention time came to 890 s.

Molecule `O=C(NCc1ccccc1)C1CCN(Cc2nncn2-c2ccccc2F)CC1` showed an RP-LC retention time of 570 s.

`CCc1cc(=O)n(CC(=O)Nc2cc(F)cc(F)c2)c(N2CCOCC2)n1` came in with an RP-LC retention time of 802 s.

Take `CCOC(=O)N1CCN(C(=O)CSc2nnc3n2CCN3c2ccc(OC)cc2)CC1`: the RP-LC retention time was 623 s.

`CCOc1ccc(C2Cn3nnc(-c4nc(-c5ccccc5)no4)c3CO2)cc1` (centres undefined) showed an RP-LC retention time of 1200 s.

As for `O=C(Cn1c(-c2cccs2)cc2cc(F)ccc21)NCCCN1CCOCC1`, the RP-LC retention time worked out at 671 s.

Take `CCCN(CCC)C1CCc2cccc(OC)c2C1` (centres undefined): the RP-LC retention time came to 762 s.

For `O=c1c2nc(-c3ccccc3)cn2ccn1-c1cccc(Cl)c1`, the RP-LC retention time is 852 s.

Consider `Cn1c(=O)c(N2CCC(NC(=O)Nc3ccc(F)cc3)CC2)nc2ccccc21`, for which the RP-LC retention time turned out to be 849 s.

The molecule `OC[C@@H]1CN(Cc2cn[nH]c2-c2ccc(F)cc2)C[C@H]1c1ccccn1` returned an RP-LC retention time of 586 s.

`Cc1cc(C)c2c(N3CCOCC3)nc(C(=O)NCc3ccc(F)cc3F)nc2n1` returned an RP-LC retention time of 651 s.

Turning to `CCN1CCN(C(=O)CC2Sc3ncccc3N(CC)C2=O)CC1` (centres undefined), the RP-LC retention time amounted to 576 s.

In the case of `O=C(CN1C(=O)c2ccccc2C1=O)NCC1(c2cccs2)CCCCC1`, the RP-LC retention time was 936 s.

With `COc1ccccc1CNC(=O)Cn1ccc2ccc(N3CCOCC3)nc21`, the RP-LC retention time is 858 s.

On to `Cc1ccc(S(=O)(=O)N2CCCC(C(=O)NCc3c(C)nc4sc(C)nn34)C2)cc1` (centres undefined), for which the RP-LC retention time was determined as 687 s.
